Reference: patent US12377112B2, “Methods of treating neurocognitive disorders, chronic pain and reducing inflammation” (priority 2019, dated 2025)

System: healthy subjects
Test: Phase 1 study: Life Changes Inventory (LCI)
Format: in vivo, human
Source text: In some embodiments, the Life Changes Inventory (LCI) questionnaire is utilized to evaluate the safety and/or efficacy of psilocybin. The LCI is designed as a questionnaire to investigate those variables present in the day-to-day experience of adults that might relate either to stability or decline of intellectual ability.
The following list of outcome measures are non-exhaustive: • a. The short-term change from Baseline (Day −1 [Visit 2]) to Day 7 (Visit 5) in cognitive measures of attention, spatial and working memory and executive function was measured by a composite score of the CANTAB Panel (Spatial Working Memory [SWM], Rapid Visual Information Processing [RVP], Paired Associates Learning [PAL]). • b. The short-term change from Baseline (Day −1 [Visit 2]) to Day 7 (Visit 5) in Social Cognition Panel scales (Pictorial Empathy Test [PET], Reading the Mind in the eyes Test [RMET], Toronto Empathy Questionnaire [TEQ], Social Value Orientation [SVO], Scale of Social Responsibility [SSR]). • c. The change from Baseline (Day −1 [Visit 2]) to Day 28 (Visit 6) in cognitive measures of attention, spatial and working memory and executive function as measured by a composite score of the CANTAB Panel (SWM, RVP, PAL). • d. The long-term change from Baseline (Day −1 [Visit 2]) to Day 84 (Visit 7) in Social Cognition Panel scales (PET, RMET, TEQ, SVO, SSR). • e. Dose-related differences between cognitive effects of psilocybin at Baseline (Day −1 [Visit 2]), Day 7 (Visit 5) and Day 28 (Visit 6), as measured by a composite score of the CANTAB Panel (SWM, RVP, PAL). • f. Dose-related differences between psychological effects of psilocybin at Baseline (Day −1 [Visit 2]), Day 7 (Visit 5) and Day 84 (Visit 7), as measured by Social Cognition Panel scales (PET, RMET, TEQ, SVO, SSR). • g. Differences in cognitive effects of psilocybin between psilocybin-naïve and experienced subjects at Baseline (Day −1 [Visit 2]), Day 7 (Visit 5) and Day 28 (Visit 6), as measured by a composite score of the CANTAB Panel (SWM, RVP, PAL). • h. Differences in Positive and Negative Affect Schedule (PANAS) after study drug administration on Day 0 (Visit 3). • i. Differences between psilocybin and placebo in the Emotion Recognition Test (ERT), Intra-Extra Dimensional Set Shift (IED), One Touch Stockings (OTS), Verbal Fluency and Digit Span Forward at Day 7 (Visit 5). • j. A composite score of the CANTAB Panel, including the following tests: • i. Spatial Working Memory (SWM) (performed at Visit 2, Visit 5, and Visit 6). • ii. Rapid Visual Information Processing (RVP) (performed at Visit 2, Visit 5, and Visit 6). • iii. Paired Associates Learning (PAL) (performed at Visit 2, Visit 5, and Visit 6). • k. Cognitive Flexibility Panel • i. Emotion Recognition Task (ERT) (performed at Visit 5). • ii. Intra-Extra Dimensional Set Shift (IED) (performed at Visit 5). • iii. One Touch Stockings (OTS) (performed at Visit 5). • iv. Verbal Fluency (performed at Visit 5). • v. Digit Span Forward (performed at Visit 5). • l. Five Dimension Altered States of Consciousness questionnaire (5D-ASC) (performed at Visit 3). • m. PANAS (performed at Visit 2 and Visit 3). • n. NEO-Five Factor Inventory (NEO-FFI) (performed at Visit 2, Visit 5, and Visit 7). • o. Symptom Checklist-90 item (SCL-90) (performed at Visit 2, Visit 5, and Visit 7). • p. Life Changes Inventory (LCI): The LCI measures changes in attitudes and values after near-death experiences often used to evaluate personal transformation following spiritually oriented experiences and practices. (performed at Visit 5 and Visit 7). • q. Social Cognition Panel scales • i. Pictorial Empathy Test (PET) (performed at Visit 2, Visit 5, and Visit 7). • ii. Reading the Mind in the Eyes Test (RMET) (performed at Visit 2, Visit 5, and Visit 7). • iii. Social Value Orientation (SVO) (performed at Visit 2, Visit 5, and Visit 7). • iv. Toronto Empathy Questionnaire (TEQ) (performed at Visit 2, Visit 5, and Visit 7). • v. […]

[1] = Psilocybin 10 mg - Placebo, Day 7
[2] = Psilocybin 10 mg - Placebo, Day 84
[3] = Psilocybin 25 mg - Placebo, Day 7
[4] = Psilocybin 25 mg - Placebo, Day 84
[5] = Psilocybin (25 mg - 10 mg), Day 7
[6] = Psilocybin (25 mg - 10 mg), Day 84

CN(C)CCc1c[nH]c2cccc(OP(=O)(O)O)c12 [Psilocybin, psilocybin]
0.6: LCI appreciation for life, LS mean difference [1] | LCI appreciation for life, LS mean difference [2]
0.2: LCI appreciation of death, LS mean difference [2] | LCI concern social, LS mean difference [3] | LCI spirituality, LS mean difference [3] | LCI appreciation of death, LS mean difference [4]
−0.1: LCI religiousness, LS mean difference [1] | LCI concern for worldly achievement, LS mean difference [3] | LCI concern for worldly achievement, LS mean difference [4] | LCI self-acceptance, LS mean difference [5] | LCI spirituality, LS mean difference [5] | LCI-absolute change, LS mean difference [5] | LCI appreciation for life, LS mean difference [6]
0.1: LCI appreciation of death, LS mean difference [1] | LCI concern social, LS mean difference [1] | LCI concern social, LS mean difference [2] | LCI appreciation of death, LS mean difference [3] | LCI concern social, LS mean difference [4] | LCI concern for worldly achievement, LS mean difference [5] | LCI concern social, LS mean difference [5] | LCI religiousness, LS mean difference [5] | LCI concern for others, LS mean difference [6] | LCI concern for worldly achievement, LS mean difference [6] | LCI religiousness, LS mean difference [6]
0.7: LCI self-acceptance, LS mean difference [1]
−0.0: LCI religiousness, LS mean difference [2] | LCI appreciation of death, LS mean difference [5] | LCI quest for meaning, LS mean difference [6] | LCI spirituality, LS mean difference [6] | LCI-absolute change, LS mean difference [6]
0.5: LCI self-acceptance, LS mean difference [2] | LCI appreciation for life, LS mean difference [3] | LCI self-acceptance, LS mean difference [3] | LCI appreciation for life, LS mean difference [4] | LCI concern for others, LS mean difference [4] | LCI self-acceptance, LS mean difference [4]
−0.2: LCI concern for worldly achievement, LS mean difference [1] | LCI concern for worldly achievement, LS mean difference [2] | LCI appreciation for life, LS mean difference [5]
0.4: LCI concern for others, LS mean difference [1] | LCI quest for meaning, LS mean difference [1] | LCI-absolute change, LS mean difference [1] | LCI concern for others, LS mean difference [2] | LCI quest for meaning, LS mean difference [2] | LCI spirituality, LS mean difference [2] | LCI-absolute change, LS mean difference [2] | LCI concern for others, LS mean difference [3] | LCI quest for meaning, LS mean difference [3] | LCI quest for meaning, LS mean difference [4] | LCI spirituality, LS mean difference [4] | LCI-absolute change, LS mean difference [4]
0.0: LCI religiousness, LS mean difference [3] | LCI religiousness, LS mean difference [4] | LCI concern for others, LS mean difference [5] | LCI quest for meaning, LS mean difference [5] | LCI appreciation of death, LS mean difference [6] | LCI concern social, LS mean difference [6] | LCI self-acceptance, LS mean difference [6]
0.3: LCI spirituality, LS mean difference [1] | LCI-absolute change, LS mean difference [3]
